Data taken from the C3SDB collision cross section collection.
“And” between values parts separate entries of the source, which are not always exact repeats. Equal entries are not always repeated.

Conditions: [M+H-H2O]+; instrument: DT; single field, calibrated with Agilent tune mix (Agilent)

| collision cross section (N2) | SMILES |
| --- | --- |
| 127 Å² | O=C(O)/C=C/c1ccc(O)cc1 [4-Hydroxycinnamic acid] |
| 149.5 Å² | CC(C)C[C@H](N)C(=O)N1CCC[C@H]1C(=O)O [L-leucyl-L-proline] |
| 199.6 Å² | CCCCCCCCCCCCCCCCCC(=O)OC[C@@H](O)CO [1-Stearoyl-sn-glycerol] |

Same assay, conditions: [M+H]+; instrument: DT; single field, calibrated with Agilent tune mix (Agilent)

| collision cross section (N2) | SMILES |
| --- | --- |
| 135.1 Å² | NC[C@H](O)CC[C@H](N)C(=O)O [5-Hydroxy-L-lysine] |
| 196.4 Å² | Nc1ncnc2c1ncn2[C@@H]1O[C@H](COP(=O)(O)OP(=O)(O)OP(=O)(O)O)[C@@H](O)[C@H]1O [Adenosine 5'-triphosphate] |
| 204.5 Å² | C[C@H](CCC(=O)NCCS(=O)(=O)O)[C@H]1CC[C@H]2[C@@H]3CC[C@@H]4C[C@H](O)CC[C@]4(C)[C@H]3C[C@H](O)[C@]12C [Taurodeoxycholic acid] |
| 137 Å² | O=C(O)c1cc(=O)c2ccccc2[nH]1 [Kynurenic acid] |
| 138.7 Å² | OCCc1c[nH]c2ccc(O)cc12 [5-Hydroxytryptophol] |
| 135.3 Å² and 135.8 Å² | Cc1ncc(CO)c(C(=O)O)c1O [4-Pyridoxic acid] |
| 140.9 Å² | O=C(O)Cc1c[nH]c2ccc(O)cc12 [5-Hydroxyindoleacetate] |
| 121.3 Å² | NCCCCC(=O)O [5-Aminopentanoic acid] |
| 138.6 Å² | O=C1O[C@H]([C@@H](O)CO)C(O)=C1O [L-Ascorbic acid] |
| 133.1 Å² | C[N+](C)(C)C[C@H](O)CC(=O)[O-] [L-Carnitine] |
| 144.2 Å² | N[C@@H](CSS(=O)(=O)O)C(=O)O [Cysteine-S-sulfate] |

Same assay, conditions: [M+Na-2H]-; instrument: DT; single field, calibrated with Agilent tune mix (Agilent)

| collision cross section (N2) | SMILES |
| --- | --- |
| 149.51 Å² | O=C(O)c1cc(=O)c2ccccc2[nH]1 [Kynurenic acid] |
| 133.29 Å² | N[C@@H](CSS(=O)(=O)O)C(=O)O [Cysteine-S-sulfate] |

Same assay, conditions: [M+Na]+; instrument: DT; single field, calibrated with Agilent tune mix (Agilent)

| collision cross section (N2) | SMILES |
| --- | --- |
| 146.7 Å² | O=C(CO)COP(=O)(O)O [Dihydroxyacetone phosphate] |
| 171.7 Å² | Nc1nc(=O)c2ncn([C@H]3C[C@H](O)[C@@H](CO)O3)c2[nH]1 [Deoxyguanosine] |
| 168.2 Å² | O=P(O)(O)OC[C@H]1O[C@@](O)(COP(=O)(O)O)[C@@H](O)[C@@H]1O [Fructose 1,6-bisphosphate] |
| 144.4 Å² | CC(=O)N[C@@H](CCC(N)=O)C(=O)O [N-Acetylglutamine] |
| 167.5 Å² | O=c1ccn([C@H]2C[C@H](O)[C@@H](COP(=O)(O)O)O2)c(=O)[nH]1 [Deoxyuridine monophosphate] |

Same assay, conditions: [M-H]-; instrument: DT; single field, calibrated with Agilent tune mix (Agilent)

| collision cross section (N2) | SMILES |
| --- | --- |
| 131.7 Å² | NC[C@H](O)CC[C@H](N)C(=O)O [5-Hydroxy-L-lysine] |
| 185.74 Å² | Nc1ncnc2c1ncn2[C@@H]1O[C@H](COP(=O)(O)OP(=O)(O)OP(=O)(O)O)[C@@H](O)[C@H]1O [Adenosine 5'-triphosphate] |
| 204.37 Å² | C[C@H](CCC(=O)NCCS(=O)(=O)O)[C@H]1CC[C@H]2[C@@H]3CC[C@@H]4C[C@H](O)CC[C@]4(C)[C@H]3C[C@H](O)[C@]12C [Taurodeoxycholic acid] |
| 156.76 Å² | Nc1nc(=O)c2ncn([C@H]3C[C@H](O)[C@@H](CO)O3)c2[nH]1 [Deoxyguanosine] |
| 129.27 Å² | O=C(O)/C=C/c1ccc(O)cc1 [4-Hydroxycinnamic acid] |
| 134.49 Å² | OCCc1c[nH]c2ccc(O)cc12 [5-Hydroxytryptophol] |
| 255.72 Å² | CC(C)CC(=O)SCCNC(=O)CCNC(=O)[C@H](O)C(C)(C)COP(=O)(O)OP(=O)(O)OC[C@H]1O[C@@H](n2cnc3c(N)ncnc32)[C@H](O)[C@@H]1OP(=O)(O)O [3-Methylbutanoyl-CoA] |
| 183.12 Å² | C[C@]12CCC(=O)C=C1CC[C@@H]1[C@@H]2CC[C@@]2(C)[C@H]1CC[C@]2(O)C(=O)CO [11-Deoxycortisol] |
| 136.82 Å² | CC(=O)N[C@@H](CCC(N)=O)C(=O)O [N-Acetylglutamine] |
| 171.31 Å² | Nc1ccn([C@@H]2O[C@H](COP(=O)(O)OP(=O)(O)O)[C@@H](O)[C@H]2O)c(=O)n1 [Cytidine 5'-diphosphate] |
| 173.34 Å² | C[C@]12CC[C@@H]3c4ccc(O)cc4CC[C@H]3[C@@H]1CC[C@@H]2O [Beta-Estradiol] |
| 139.72 Å² | O=C(O)CNC(=O)c1ccccc1 [Hippuric acid] |
| 124.49 Å² | NCCCCC(=O)O [5-Aminopentanoic acid] |
| 156 Å² | O=c1ccn([C@H]2C[C@H](O)[C@@H](COP(=O)(O)O)O2)c(=O)[nH]1 [Deoxyuridine monophosphate] |
| 120.55 Å² | N[C@@H](CS(=O)(=O)O)C(=O)O [L-Cysteic acid] |
